Columns and labels:
Rat [1] = test: concentration in plasma after dosing; details: 24 h; dosed: Gemfibrozil; 4.29 mg/kg; oral; Male; Sprague-Dawley
Rat [2] = test: concentration in plasma after dosing; details: 4 h; dosed: Gemfibrozil; 100 mg/kg; oral; Male; Sprague-Dawley
Rat [3] = test: concentration in plasma after dosing; details: 24 h; dosed: Gemfibrozil; 50 mg/kg; oral; Male; Sprague-Dawley
Rat [4] = test: concentration in plasma after dosing; details: 6 h; dosed: Gemfibrozil; 50 mg/kg; oral; Male; Sprague-Dawley
Rat [5] = test: concentration in plasma after dosing; details: 6 h; dosed: Gemfibrozil; 4.29 mg/kg; oral; Male; Sprague-Dawley
Rat [6] = test: concentration in kidney after dosing; details: 6 h; dosed: Fluorotelomer alcohol 8+2; 24 mg/kg; oral; Male; Harlan Sprague Dawley
Rat [7] = test: concentration in brain after dosing; details: 12 h; dosed: Fluorotelomer alcohol 8+2; 80 mg/kg; oral; Female; Harlan Sprague Dawley
Rat [8] = test: concentration in liver after dosing; details: 6 h; dosed: Fluorotelomer alcohol 8+2; 24 mg/kg; oral; Male; Harlan Sprague Dawley
Rat [9] = test: concentration in plasma after dosing; details: dosed: 678-39-7, 40 mg/kg, iv, Female, Harlan Sprague-Dawley
Rat [10] = test: concentration in brain after dosing; details: 3 h; dosed: Fluorotelomer alcohol 8+2; 80 mg/kg; oral; Female; Harlan Sprague Dawley
Rat [11] = test: concentration in brain after dosing; details: 6 h; dosed: Fluorotelomer alcohol 8+2; 80 mg/kg; oral; Female; Harlan Sprague Dawley
rat [12] = test: concentration in blood after dosing; details: dosed: trichloroethylene
Rat [13] = test: concentration in brain after dosing; details: 24 h; dosed: Perfluorooctane Sulfonate; 2 mg/kg; oral; Female; Harlan Sprague Dawley
Rat [14] = test: concentration in liver after dosing; details: 24 h; dosed: Perfluorooctane Sulfonate; 2 mg/kg; oral; Female; Harlan Sprague Dawley
Rat [15] = test: concentration in liver after dosing; details: 6 h; dosed: Perfluorooctane Sulfonate; 20 mg/kg; oral; Male; Harlan Sprague Dawley
Rat [16] = test: concentration in liver after dosing; details: 864 h; dosed: Perfluorooctane Sulfonate; 2 mg/kg; oral; Female; Harlan Sprague Dawley
Rat [17] = test: concentration in brain after dosing; details: 864 h; dosed: Perfluorooctane Sulfonate; 20 mg/kg; oral; Male; Harlan Sprague Dawley
Rat [18] = test: concentration in kidney after dosing; details: 1848 h; dosed: Perfluorooctane Sulfonate; 20 mg/kg; oral; Male; Harlan Sprague Dawley
Rat [19] = test: concentration in liver after dosing; details: 864 h; dosed: Perfluorooctane Sulfonate; 2 mg/kg; oral; Female; Harlan Sprague Dawley; remark: listed apart in the source
Rat [20] = test: concentration in plasma after dosing; details: 6 h; dosed: 2-Methyltetrahydrofuran; 40 mg/kg; iv; Male; Harlan Sprague Dawley
Rat [21] = test: concentration in plasma after dosing; details: 1.5 h; dosed: 2-Methyltetrahydrofuran; 40 mg/kg; iv; Male; Harlan Sprague Dawley
Rat [22] = test: concentration in plasma after dosing; details: 2 min; dosed: 2-Methyltetrahydrofuran; 40 mg/kg; iv; Female; Harlan Sprague Dawley
Rat [23] = test: concentration in plasma after dosing; details: 0.75 h; dosed: 2-Methyltetrahydrofuran; 40 mg/kg; iv; Male; Harlan Sprague Dawley
Rat [24] = test: concentration in plasma after dosing; details: 0.2 h; dosed: 2-Methyltetrahydrofuran; 40 mg/kg; iv; Male; Harlan Sprague Dawley
Rat [25] = test: concentration in brain after dosing; details: 0.75 h; dosed: 2-Methyltetrahydrofuran; 40 mg/kg; iv; Male; Harlan Sprague Dawley
Rat [26] = test: concentration in plasma after dosing; details: 4 h; dosed: 2-Methyltetrahydrofuran; 40 mg/kg; iv; Male; Harlan Sprague Dawley
Rat [27] = test: concentration in plasma after dosing; details: 0.75 h; dosed: 2-Methyltetrahydrofuran; 40 mg/kg; iv; Male; Harlan Sprague Dawley; remark: listed apart in the source
Rat [28] = test: concentration in brain after dosing; details: 4 h; dosed: 2-Methyltetrahydrofuran; 40 mg/kg; iv; Female; Harlan Sprague Dawley
Rat [29] = test: concentration in plasma after dosing; details: 2 min; dosed: 2-Methyltetrahydrofuran; 40 mg/kg; iv; Male; Harlan Sprague Dawley
Rat [30] = test: concentration in plasma after dosing; details: 0.75 h; dosed: Perfluorohexanoic Acid; 40 mg/kg; iv; Male; F344
Rat [31] = test: concentration in plasma after dosing; details: dosed: Perfluorohexanoic Acid, 40 mg/kg, oral, Male, Harlan Sprague Dawley
Rat [32] = test: concentration in plasma after dosing; details: dosed: Perfluorohexanoic Acid, 40 mg/kg, oral, Male, Harlan Sprague Dawley; remark: listed apart in the source

Cc1ccc(C)c(OCCCC(C)(C)C(=O)O)c1 [Gemfibrozil]
concentration in plasma (Rat [1]): 159 ng/mL | concentration in plasma (Rat [2]): 6150 ng/mL | concentration in plasma (Rat [3]): 754 ng/mL | concentration in plasma (Rat [4]): 2930 ng/mL | concentration in plasma (Rat [5]): 640 ng/mL

O=C(O)CCC(F)(F)C(F)(F)C(F)(F)C(F)(F)C(F)(F)C(F)(F)C(F)(F)F [Fluorotelomer acid 7+3]
concentration in kidney (Rat [6]): 822 ng/g | concentration in brain (Rat [7]): 484 ng/g | concentration in liver (Rat [8]): 1860 ng/g | concentration in plasma (Rat [9]; 0.75 h): 1830 ng/mL | concentration in plasma (Rat [9]; 12 h): 863 ng/mL | concentration in brain (Rat [10]): 1580 ng/g | concentration in brain (Rat [11]): 1040 ng/g

ClC=C(Cl)Cl [trichloroethylene]
concentration in blood (rat [12]; 110 s, 50 ppm, inhalation, duration: 2 hr, male, Sprague Dawley): 206 ng/mL | concentration in blood (rat [12]; 125 s, 7.6 mg/kg, oral, female, F344): 1770 ng/mL | concentration in blood (rat [12]; 143 s, 18 mg/kg, oral, male, Wistar): 11100 ng/mL | concentration in blood (rat [12]; 219 s, 50 ppm, inhalation, duration: 2 hr, male, Sprague Dawley): 267 ng/mL | concentration in blood (rat [12]; 266 s, 18 mg/kg, oral, male, Wistar): 13600 ng/mL | concentration in blood (rat [12]; 296 s, 7.6 mg/kg, oral, female, F344): 2100 ng/mL | concentration in blood (rat [12]; 350 s, 50 ppm, inhalation, duration: 2 hr, male, Sprague Dawley): 337 ng/mL | concentration in blood (rat [12]; 355 s, 18 mg/kg, oral, male, Wistar): 13000 ng/mL | concentration in blood (rat [12]; 0.1294 h, 600.4 ppm, inhalation, duration: 4 hr, female, Fischer-344): 21900 ng/mL | concentration in blood (rat [12]; 0.1299 h, 50 ppm, inhalation, duration: 2 hr, male, Sprague Dawley): 443 ng/mL | concentration in blood (rat [12]; 0.1447 h, 18 mg/kg, oral, male, Wistar): 10200 ng/mL | concentration in blood (rat [12]; 0.1617 h, 50 ppm, inhalation, duration: 2 hr, male, Sprague Dawley): 402 ng/mL | concentration in blood (rat [12]; 0.1716 h, 7.6 mg/kg, oral, female, F344): 1400 ng/mL | concentration in blood (rat [12]; 0.1747 h, 18 mg/kg, oral, male, Wistar): 7730 ng/mL | concentration in blood (rat [12]; 0.2208 h, 18 mg/kg, oral, male, Wistar): 5020 ng/mL | concentration in blood (rat [12]; 0.2483 h, 50 ppm, inhalation, duration: 2 hr, male, Sprague Dawley): 454 ng/mL | concentration in blood (rat [12]; 0.2739 h, 18 mg/kg, oral, male, Wistar): 3760 ng/mL | concentration in blood (rat [12]; 0.3228 h, 18 mg/kg, oral, male, Wistar): 2790 ng/mL | concentration in blood (rat [12]; 0.3289 h, 50 ppm, inhalation, duration: 2 hr, male, Sprague Dawley): 492 ng/mL | concentration in blood (rat [12]; 0.3309 h, 7.6 mg/kg, oral, female, F344): 494 ng/mL | concentration in blood (rat [12]; 0.3794 h, 18 mg/kg, oral, male, Wistar): 2110 ng/mL | concentration in blood (rat [12]; 0.4153 h, 50 ppm, inhalation, duration: 2 hr, male, Sprague Dawley): 352 ng/mL | concentration in blood (rat [12]; 0.4319 h, 18 mg/kg, oral, male, Wistar): 1710 ng/mL | concentration in blood (rat [12]; 0.4974 h, 50 ppm, inhalation, duration: 2 hr, male, Sprague Dawley): 493 ng/mL | concentration in blood (rat [12]; 0.5005 h, 7.6 mg/kg, oral, female, F344): 296 ng/mL | concentration in blood (rat [12]; 0.5081 h, 600.4 ppm, inhalation, duration: 4 hr, female, Fischer-344): 15900 ng/mL | concentration in blood (rat [12]; 0.5204 h, 18 mg/kg, oral, male, Wistar): 1350 ng/mL | concentration in blood (rat [12]; 0.7511 h, 50 ppm, inhalation, duration: 2 hr, male, Sprague Dawley): 433 ng/mL | concentration in blood (rat [12]; 0.7693 h, 18 mg/kg, oral, male, Wistar): 957 ng/mL | concentration in blood (rat [12]; 1.002 h, 50 ppm, inhalation, duration: 2 hr, male, Sprague Dawley): 555 ng/mL | concentration in blood (rat [12]; 1.014 h, 18 mg/kg, oral, male, Wistar): 768 ng/mL | concentration in blood (rat [12]; 1.016 h, 600.4 ppm, inhalation, duration: 4 hr, female, Fischer-344): 9420 ng/mL | concentration in blood (rat [12]; 1.252 h, 50 ppm, inhalation, duration: 2 hr, male, Sprague Dawley): 512 ng/mL | concentration in blood (rat [12]; 1.512 h, 18 mg/kg, oral, male, Wistar): 503 ng/mL | concentration in blood (rat [12]; 1.531 h, 600.4 ppm, inhalation, duration: 4 hr, female, Fischer-344): 5750 ng/mL | concentration in blood (rat [12]; 2.017 h, 18 mg/kg, oral, male, Wistar): 333 ng/mL | concentration in blood (rat [12]; 2.018 h, 600.4 ppm, inhalation, duration: 4 hr, female, Fischer-344): 4750 ng/mL | concentration in blood (rat [12]; 2.518 h, 18 mg/kg, oral, male, Wistar): 321 ng/mL | concentration in blood (rat [12]; 3.02 h, 18 mg/kg, oral, male, Wistar): 214 ng/mL | concentration in blood (rat [12]; 3.529 h, 18 mg/kg, oral, male, Wistar): 59.6 ng/mL | concentration in blood (rat [12]; 4.027 h, 18 mg/kg, oral, male, Wistar): 47.7 ng/mL

O=S(=O)([O-])C(F)(F)C(F)(F)C(F)(F)C(F)(F)C(F)(F)C(F)(F)C(F)(F)C(F)(F)F [Perfluorooctane Sulfonate]
concentration in brain (Rat [13]): 800 ng/g | concentration in liver (Rat [14]): 30300 ng/g | concentration in liver (Rat [15]): 204000 ng/g | concentration in liver (Rat [16]): 9930 ng/g | concentration in brain (Rat [17]): 2330 ng/g | concentration in kidney (Rat [18]): 10200 ng/g | concentration in liver (Rat [19]): 17500 ng/g

CC1CCCO1 (stereo not given) [2-Methyltetrahydrofuran]
concentration in plasma (Rat [20]): 16.9 ng/mL | concentration in plasma (Rat [21]): 11400 ng/mL | concentration in plasma (Rat [22]): 52500 ng/mL | concentration in plasma (Rat [23]): 26900 ng/mL | concentration in plasma (Rat [24]): 37600 ng/mL | concentration in brain (Rat [25]): 15400 ng/mL | concentration in plasma (Rat [26]): 312 ng/mL | concentration in plasma (Rat [27]): 29200 ng/mL | concentration in brain (Rat [28]): 111 ng/mL | concentration in plasma (Rat [29]): 57400 ng/mL

O=C(O)C(F)(F)C(F)(F)C(F)(F)C(F)(F)C(F)(F)F [Perfluorohexanoic Acid]
concentration in plasma (Rat [30]): 18600 ng/mL | concentration in plasma (Rat [31]; 0.75 h): 46400 ng/mL | concentration in plasma (Rat [31]; 12 h): 6500 ng/mL | concentration in plasma (Rat [32]; 5 min): 32900 ng/mL | concentration in plasma (Rat [32]; 3 h): 56400 ng/mL

Source: EPA's CvTdb concentration-time database
